Active and inactive are the calls of the source.
Assays:
[1] = M. tuberculosis H37Rv growth inhibitors, H37Rv strain (AID 1626); format: functional
Cytochrome P450 2C9 = Cytochrome P450 2C9 (Homo sapiens, UniProt P11712)
[2] = target: Epstein-Barr nuclear antigen 1 (Epstein-Barr virus (strain B95-8) (HHV-4) (Human herpesvirus 4), UniProt P03211); assay: inhibition of EBV nuclear antigen 1 DNA binding – biochemical, fluorescence polarization, 1536-well, dose response (AID 2381); design: species or system human gammaherpesvirus 4;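 also: fluorescence polarization of a Cy5 DNA probe bound by EBNA-1 protein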
[3] = target: Lytic switch protein BZLF1 (Epstein-Barr virus (strain B95-8) (HHV-4) (Human herpesvirus 4), UniProt P03206); assay: inhibition of BZLF1 ZTA DNA binding – biochemical, fluorescence polarization, Epstein-Barr virus, 1536-well, counter-screen for EBNA-1 inhibitor project, dose response (AID 2377); design: species or system human gammaherpesvirus 4;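 also: fluorescence polarization of Cy5-labelled ZRE DNA probe bound by purified Zta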
[4] = target: T1, Small ubiquitin-related modifier 1 (Homo sapiens, UniProt P63165); assay: SUMO1 protein interaction blockers, potency – biochemical, fluorescence polarization, uHTS hits, dose response (AID 624382); format: functional; details: read-out: IC50_Mean
Genome polyprotein [5] = target: T2, Genome polyprotein (Hepatitis C virus, UniProt Q2Q167); assay: disruption of hepatitis C core self-association – biochemical, TR-FRET, dose response (AID 2159); design: species or system Hepacivirus hominis;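 also: blocks dimerization of HCV core protein measured by TR-FRET between tagged core106 pairs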
Albumin = Albumin (Bos taurus, UniProt P02769); assay: Counterscreen for inhibitors of T-cell receptor (TCR)-CD3 interaction: Fluorescence-based biochemical high throughput dose response assay to identify inhibitors of T-cell receptor (TCR)-CD3 interaction using a TAMRA-labeled BSA probe.; format: functional
Bcl-2-like protein 1 = Bcl-2-like protein 1 (Homo sapiens, UniProt Q07817); assay: blockers of BCLXL peptide binding – biochemical, fluorescence polarization, 1536-well, selectivity assay for MCL1 inhibitor project, dose response (AID 2218)
[6] = target: T1, Small ubiquitin-related modifier 1; assay: SUMO1 protein-protein binding blockers, potency – biochemical, FRET, dose response (AID 624383); format: functional; details: read-out: IC50_Mean
Genome polyprotein [7] = target: T2, Genome polyprotein; assay: Late stage assay provider counterscreen results for the probe development effort to identify inhibitors of Hepatitis C Virus (HCV) core protein dimerization: Luminescence-based biochemical AlphaScreen assay to identify inhibitors of HCV core dimerization.; format: functional, Hepacivirus hominis
[8] = target: Induced myeloid leukemia cell differentiation protein Mcl-1 (Homo sapiens, UniProt Q07820); assay: blockers of MCL1 binding to BIM peptide – biochemical, fluorescence polarization, BIM-BH3 peptide, 1536-well, dose response (AID 2217)
Aspartyl aminopeptidase = Aspartyl aminopeptidase (Plasmodium falciparum 3D7, UniProt Q8I2J3); assay: Counterscreen for inhibitors of M1 and M17 aminopeptidases: QFRET-based biochemical high throughput dose response assay for inhibitors of the Plasmodium falciparum M18 Aspartyl Aminopeptidase (PFM18AAP). [Related PubChem assays: 1619 (Screening assay (M17LAP inhibitors).), 1445 (Screening assay (M1AAP inhibitors).)]
Leucine aminopeptidase = target: T3, Leucine aminopeptidase (Plasmodium falciparum 3D7, UniProt Q8IL11); assay: P. falciparum M17LAP inhibitors, primary screen, biochemical, fluorogenic H-Leu-NHMec substrate, 1536-well (AID 1619); format: functional
T3 sequence (Q8IL11 whole entry): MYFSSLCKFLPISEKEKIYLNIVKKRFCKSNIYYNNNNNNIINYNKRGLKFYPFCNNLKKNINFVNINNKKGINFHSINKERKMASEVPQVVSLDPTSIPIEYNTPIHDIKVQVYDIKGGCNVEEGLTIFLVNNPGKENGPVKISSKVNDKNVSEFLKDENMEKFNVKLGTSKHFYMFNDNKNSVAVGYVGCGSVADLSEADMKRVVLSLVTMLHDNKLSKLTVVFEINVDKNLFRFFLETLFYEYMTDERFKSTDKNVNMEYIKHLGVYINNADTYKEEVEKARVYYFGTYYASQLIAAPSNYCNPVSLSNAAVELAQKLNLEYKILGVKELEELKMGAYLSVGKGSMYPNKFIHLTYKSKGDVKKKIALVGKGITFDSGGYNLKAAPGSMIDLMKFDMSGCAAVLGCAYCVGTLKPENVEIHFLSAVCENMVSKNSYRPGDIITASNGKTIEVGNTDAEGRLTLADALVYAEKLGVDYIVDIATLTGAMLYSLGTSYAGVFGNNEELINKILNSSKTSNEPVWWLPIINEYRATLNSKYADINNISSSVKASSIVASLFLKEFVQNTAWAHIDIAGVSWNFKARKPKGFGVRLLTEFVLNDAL

Large T antigen = Large T antigen (Simian virus 40, UniProt P03070); format: functional, Betapolyomavirus macacae;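 also: Confirmatory-stage PubChem screen for compounds that inhibit SV40 T antigen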
Procathepsin L = Procathepsin L (Homo sapiens, UniProt P07711); assay: CTSL1 protease inhibition – biochemical, QFRET, 1536-well, counter-screen for M1/M17 aminopeptidase inhibitor project, dose response (AID 2214)
NADPH oxidase 1 [9] = target: T4, NADPH oxidase 1 (Homo sapiens, UniProt Q9Y5S8); assay: Luminescence-based cell-based dose response assay to identify inhibitors of NADPH oxidase 1 (NOX1).; format: functional
T4 sequence (Q9Y5S8 whole entry): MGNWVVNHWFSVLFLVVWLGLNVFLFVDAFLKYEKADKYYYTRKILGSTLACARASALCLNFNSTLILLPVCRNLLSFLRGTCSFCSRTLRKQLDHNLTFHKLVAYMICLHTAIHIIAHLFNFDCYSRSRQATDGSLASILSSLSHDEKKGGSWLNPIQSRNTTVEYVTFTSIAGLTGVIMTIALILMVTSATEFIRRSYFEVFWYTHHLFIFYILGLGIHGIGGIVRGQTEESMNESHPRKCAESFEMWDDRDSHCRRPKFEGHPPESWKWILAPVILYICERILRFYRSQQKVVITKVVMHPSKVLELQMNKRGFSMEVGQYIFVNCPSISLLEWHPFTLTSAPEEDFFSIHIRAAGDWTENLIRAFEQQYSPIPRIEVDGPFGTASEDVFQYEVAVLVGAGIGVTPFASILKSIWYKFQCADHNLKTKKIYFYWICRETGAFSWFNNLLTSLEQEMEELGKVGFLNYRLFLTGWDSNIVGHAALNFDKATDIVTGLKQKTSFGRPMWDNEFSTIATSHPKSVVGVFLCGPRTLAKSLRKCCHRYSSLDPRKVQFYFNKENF

[10] = target: T5, Rac GTPase-activating protein 1 (Homo sapiens, UniProt Q9H0H5); assay: blockers of MgcRacGAP-driven Rac1 GTP hydrolysis – biochemical, ADP Hunter fluorescence, primary and confirmatory, confirmation (AID 624330); format: functional
T5 sequence (Q9H0H5 whole entry): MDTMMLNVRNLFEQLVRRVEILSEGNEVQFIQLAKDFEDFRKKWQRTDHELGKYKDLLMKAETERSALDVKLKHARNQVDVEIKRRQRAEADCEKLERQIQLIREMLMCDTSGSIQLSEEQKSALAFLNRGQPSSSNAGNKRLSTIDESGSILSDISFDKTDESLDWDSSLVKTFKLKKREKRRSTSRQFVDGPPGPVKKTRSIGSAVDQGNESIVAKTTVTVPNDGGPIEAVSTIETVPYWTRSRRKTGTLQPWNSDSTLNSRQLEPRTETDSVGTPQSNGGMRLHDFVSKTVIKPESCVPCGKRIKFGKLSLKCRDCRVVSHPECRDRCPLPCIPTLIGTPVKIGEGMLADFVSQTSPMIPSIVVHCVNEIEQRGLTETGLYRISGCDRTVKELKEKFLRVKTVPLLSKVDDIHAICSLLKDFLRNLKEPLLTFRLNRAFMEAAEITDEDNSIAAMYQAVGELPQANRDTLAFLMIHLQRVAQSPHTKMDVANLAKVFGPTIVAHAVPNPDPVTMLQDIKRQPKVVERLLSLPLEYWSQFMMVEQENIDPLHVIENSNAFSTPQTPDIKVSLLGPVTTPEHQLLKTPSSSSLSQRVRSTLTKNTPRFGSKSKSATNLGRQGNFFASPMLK

NADPH oxidase 1 [11] = target: T4, NADPH oxidase 1; format: functional, cell-based

T2 sequence (Q2Q167 whole entry): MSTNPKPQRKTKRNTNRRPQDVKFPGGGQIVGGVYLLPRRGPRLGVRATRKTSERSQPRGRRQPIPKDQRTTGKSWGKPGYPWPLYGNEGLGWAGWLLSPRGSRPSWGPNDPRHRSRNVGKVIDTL
T1 sequence (P63165 whole entry): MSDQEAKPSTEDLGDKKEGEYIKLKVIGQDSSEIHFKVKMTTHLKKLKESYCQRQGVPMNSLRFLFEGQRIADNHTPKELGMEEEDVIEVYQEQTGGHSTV
Chain of Bcl-2-like protein 1 (Q07817 whole entry): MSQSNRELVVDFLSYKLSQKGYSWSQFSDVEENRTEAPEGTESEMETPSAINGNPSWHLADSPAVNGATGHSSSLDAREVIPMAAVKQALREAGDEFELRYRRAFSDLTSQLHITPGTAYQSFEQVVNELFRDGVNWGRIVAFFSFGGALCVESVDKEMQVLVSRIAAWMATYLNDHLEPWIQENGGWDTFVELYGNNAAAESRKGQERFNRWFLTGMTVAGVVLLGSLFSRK
Chain of Procathepsin L (P07711 whole entry): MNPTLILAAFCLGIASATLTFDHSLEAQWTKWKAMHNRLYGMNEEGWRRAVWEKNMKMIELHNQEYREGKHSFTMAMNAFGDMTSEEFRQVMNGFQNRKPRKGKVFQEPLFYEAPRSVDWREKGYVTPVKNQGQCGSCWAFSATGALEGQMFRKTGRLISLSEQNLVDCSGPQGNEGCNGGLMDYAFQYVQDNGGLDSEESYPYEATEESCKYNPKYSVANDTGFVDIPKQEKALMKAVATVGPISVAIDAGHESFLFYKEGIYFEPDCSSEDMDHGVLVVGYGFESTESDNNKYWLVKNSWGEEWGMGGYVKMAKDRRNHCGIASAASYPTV
Chain of Cytochrome P450 2C9 (P11712 whole entry): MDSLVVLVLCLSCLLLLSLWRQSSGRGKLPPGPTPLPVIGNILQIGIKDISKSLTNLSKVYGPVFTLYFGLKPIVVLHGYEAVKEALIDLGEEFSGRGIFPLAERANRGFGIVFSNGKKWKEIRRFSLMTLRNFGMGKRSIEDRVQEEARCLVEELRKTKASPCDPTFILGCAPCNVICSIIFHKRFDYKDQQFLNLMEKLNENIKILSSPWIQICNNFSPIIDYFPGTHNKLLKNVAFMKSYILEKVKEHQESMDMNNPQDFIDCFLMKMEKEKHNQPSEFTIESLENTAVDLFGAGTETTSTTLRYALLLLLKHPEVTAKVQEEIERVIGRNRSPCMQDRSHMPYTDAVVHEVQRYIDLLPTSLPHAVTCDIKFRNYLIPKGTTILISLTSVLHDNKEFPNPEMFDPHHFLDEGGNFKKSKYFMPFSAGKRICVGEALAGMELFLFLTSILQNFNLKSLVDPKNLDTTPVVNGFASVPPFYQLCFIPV
Chain of Albumin (P02769 whole entry): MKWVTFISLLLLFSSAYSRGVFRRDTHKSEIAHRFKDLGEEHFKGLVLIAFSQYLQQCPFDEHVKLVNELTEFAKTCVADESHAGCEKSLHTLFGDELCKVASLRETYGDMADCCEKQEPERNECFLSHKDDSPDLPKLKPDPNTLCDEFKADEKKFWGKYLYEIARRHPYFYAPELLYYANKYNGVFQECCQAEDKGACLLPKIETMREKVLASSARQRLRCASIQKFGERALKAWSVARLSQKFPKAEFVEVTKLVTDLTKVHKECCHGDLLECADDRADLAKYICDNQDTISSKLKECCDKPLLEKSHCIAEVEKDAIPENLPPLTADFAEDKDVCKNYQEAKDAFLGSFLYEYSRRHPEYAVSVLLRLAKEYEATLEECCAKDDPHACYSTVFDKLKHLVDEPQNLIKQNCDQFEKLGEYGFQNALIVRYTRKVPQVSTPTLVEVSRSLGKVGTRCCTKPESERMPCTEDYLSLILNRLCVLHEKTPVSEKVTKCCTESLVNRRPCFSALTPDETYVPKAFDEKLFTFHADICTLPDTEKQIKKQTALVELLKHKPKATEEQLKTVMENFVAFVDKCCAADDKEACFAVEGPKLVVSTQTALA
Chain of Induced myeloid leukemia cell differentiation protein Mcl-1 (Q07820 whole entry): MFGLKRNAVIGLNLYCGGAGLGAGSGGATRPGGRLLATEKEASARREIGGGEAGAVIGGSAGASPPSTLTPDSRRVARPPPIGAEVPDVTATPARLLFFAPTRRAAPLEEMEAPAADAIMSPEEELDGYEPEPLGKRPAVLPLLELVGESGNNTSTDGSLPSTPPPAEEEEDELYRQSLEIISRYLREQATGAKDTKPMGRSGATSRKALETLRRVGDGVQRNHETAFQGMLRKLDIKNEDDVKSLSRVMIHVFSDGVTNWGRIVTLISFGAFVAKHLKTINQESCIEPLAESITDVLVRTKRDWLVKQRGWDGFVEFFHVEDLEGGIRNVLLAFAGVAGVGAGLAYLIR
Chain of Large T antigen (P03070 whole entry): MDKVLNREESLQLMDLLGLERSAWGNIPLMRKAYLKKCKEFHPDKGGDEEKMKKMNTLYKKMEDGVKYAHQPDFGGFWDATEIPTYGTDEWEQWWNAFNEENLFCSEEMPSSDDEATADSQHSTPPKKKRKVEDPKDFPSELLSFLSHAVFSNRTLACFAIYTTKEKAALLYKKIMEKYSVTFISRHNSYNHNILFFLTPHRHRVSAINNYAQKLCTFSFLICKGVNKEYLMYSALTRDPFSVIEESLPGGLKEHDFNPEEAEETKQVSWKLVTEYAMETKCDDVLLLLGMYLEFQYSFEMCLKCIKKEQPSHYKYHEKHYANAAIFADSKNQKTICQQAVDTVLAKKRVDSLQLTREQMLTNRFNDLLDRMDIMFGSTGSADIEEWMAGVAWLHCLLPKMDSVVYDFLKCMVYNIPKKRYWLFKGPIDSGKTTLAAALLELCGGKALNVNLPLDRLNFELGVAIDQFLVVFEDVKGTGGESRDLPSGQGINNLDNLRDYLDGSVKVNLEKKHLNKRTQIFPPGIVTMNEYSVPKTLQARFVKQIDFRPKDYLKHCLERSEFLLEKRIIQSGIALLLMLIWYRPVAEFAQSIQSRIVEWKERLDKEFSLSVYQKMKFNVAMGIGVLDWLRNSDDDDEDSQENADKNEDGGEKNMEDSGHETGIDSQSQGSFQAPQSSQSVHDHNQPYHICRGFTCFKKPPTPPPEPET
Chain of Aspartyl aminopeptidase (Q8I2J3 whole entry): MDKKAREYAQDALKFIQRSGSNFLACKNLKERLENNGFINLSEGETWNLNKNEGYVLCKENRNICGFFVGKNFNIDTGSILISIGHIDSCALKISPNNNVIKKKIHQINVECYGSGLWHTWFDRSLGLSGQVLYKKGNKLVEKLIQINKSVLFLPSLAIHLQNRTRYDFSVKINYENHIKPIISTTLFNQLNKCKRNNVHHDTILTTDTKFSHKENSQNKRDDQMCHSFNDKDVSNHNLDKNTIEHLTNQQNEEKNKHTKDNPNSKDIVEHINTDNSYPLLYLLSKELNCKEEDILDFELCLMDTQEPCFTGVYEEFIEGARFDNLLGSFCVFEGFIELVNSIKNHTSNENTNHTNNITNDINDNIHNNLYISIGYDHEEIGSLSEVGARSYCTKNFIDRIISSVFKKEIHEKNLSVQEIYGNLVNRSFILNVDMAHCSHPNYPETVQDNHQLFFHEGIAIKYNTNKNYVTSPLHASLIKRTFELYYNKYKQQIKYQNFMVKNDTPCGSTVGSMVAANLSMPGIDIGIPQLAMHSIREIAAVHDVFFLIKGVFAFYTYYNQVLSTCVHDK
Chain of Lytic switch protein BZLF1 (P03206 whole entry): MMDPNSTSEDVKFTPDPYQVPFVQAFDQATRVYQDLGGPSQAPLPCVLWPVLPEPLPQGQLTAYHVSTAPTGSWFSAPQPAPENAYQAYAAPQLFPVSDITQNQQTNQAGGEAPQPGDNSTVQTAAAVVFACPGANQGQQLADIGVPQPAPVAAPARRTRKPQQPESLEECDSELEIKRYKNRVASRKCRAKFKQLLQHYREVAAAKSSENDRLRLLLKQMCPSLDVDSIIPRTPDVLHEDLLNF
Chain of Epstein-Barr nuclear antigen 1 (P03211 whole entry): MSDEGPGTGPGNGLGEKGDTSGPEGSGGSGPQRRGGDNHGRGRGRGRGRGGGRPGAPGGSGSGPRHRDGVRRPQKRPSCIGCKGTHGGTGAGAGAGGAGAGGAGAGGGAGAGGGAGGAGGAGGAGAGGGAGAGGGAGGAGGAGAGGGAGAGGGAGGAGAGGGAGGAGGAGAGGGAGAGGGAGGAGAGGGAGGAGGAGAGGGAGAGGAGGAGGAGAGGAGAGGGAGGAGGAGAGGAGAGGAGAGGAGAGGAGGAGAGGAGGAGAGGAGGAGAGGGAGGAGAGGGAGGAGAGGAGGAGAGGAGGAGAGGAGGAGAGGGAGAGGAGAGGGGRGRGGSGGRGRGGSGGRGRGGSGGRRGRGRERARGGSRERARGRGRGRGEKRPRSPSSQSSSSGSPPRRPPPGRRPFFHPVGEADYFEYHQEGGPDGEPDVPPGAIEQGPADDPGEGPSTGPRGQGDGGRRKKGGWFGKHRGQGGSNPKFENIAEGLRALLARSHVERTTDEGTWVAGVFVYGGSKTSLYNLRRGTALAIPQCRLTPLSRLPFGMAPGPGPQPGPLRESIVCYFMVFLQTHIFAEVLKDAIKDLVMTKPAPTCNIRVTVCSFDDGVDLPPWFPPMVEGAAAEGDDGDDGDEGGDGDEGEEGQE

CCCCOC(=O)Nc1ccc(C)c(Cl)c1
IC50 [1]: > 100 µM (active) | AC50 (Cytochrome P450 2C9): 11.2 µM (inconclusive)

CC1=CC2=NC(=O)/C(=C\c3cn(C)c4ccccc34)C(=N)N2O1
IC50 [2]: 8.61 µM (active) | IC50 [3]: > 111 µM (not active)

CCN(CC(=O)Nc1c(F)cccc1F)C(=O)/C=C/c1ccc2ccccc2n1
IC50 [4]: > 66.6 µM (inactive) | IC50 (Genome polyprotein [5]): 16.7 µM (not active) | IC50 (Albumin): > 94.1 µM (inactive) | IC50 (Bcl-2-like protein 1): 25.3 µM (not active) | IC50 [6]: 2.3 µM (active) | IC50 (Genome polyprotein [7]): 29.8 µM (inactive) | IC50 [8]: 3.46 µM (active)

CCN(CC)c1ccc(NC(=O)CSc2nnc(N)s2)cc1C
IC50 (Aspartyl aminopeptidase): > 73.5 µM (not active) | IC50 (Leucine aminopeptidase): 5.57 µM (active) | IC50 (Large T antigen): 14.8 µM (active) | IC50 (Procathepsin L): > 59.6 µM (not active)

c1ccc2c(c1)Nc1ccccc1S2 [PHENOTHIAZINE]
IC50 (NADPH oxidase 1 [9]): 0.349 µM (active) | IC50 [10]: 18.5 µM (active) | IC50 (NADPH oxidase 1 [11]): 0.369 µM (active)
